Measurements: US10035800B2 (AbbVie Inc., priority 2013, dated 2018)
pEC50, pKi: −log10 of the molar value.

Key:
[1] = target: T1, BRD4 (BDI_K57-E168) (Homo sapiens, UniProt O60885); assay: TR-FRET bromodomain binding assay, first bromodomain of BRD4; conditions: TR-FRET assay protocol G (compound 0.92 μM-15 pM); 100 nM probe
T1 construct: BD1: amino acids K57-E168; made in house
Outline: (§1)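 Ki values derive from IC50s using probe Kd and concentration, with IC50s fitted to normalized TR-FRET ratios (Ex 340/Em 495, 520). Compounds competed against an Alexa647-labelled BET-inhibitor (100 nM BDI, 30 nM BDII) for 8 nM His-tagged bromodomain bound by Eu-anti-His antibody, 1 h, room temperature, pH 6.0.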

[2] = tested on: breast cancer cell line MX-1; assay: MX-1 cell line proliferation assay; assay type: cell-based; conditions: MX-1 cells, 3-day proliferation assay, Cell Titer Glo; read-out: Cellular proliferation: EC50
Outline: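 EC50 comes from sigmoidal fits of Cell Titer Glo luminescence relative to DMSO controls, with assay MSR 2.1. Ten-point 3-fold dilutions (top 3 or 1 μM final) were added to MX-1 breast cancer cells after overnight adhesion. Cells were at 5000/well and proliferation ran 3 days.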

[3] = target: T2, BRD4 (BDII_E352-M457) (Homo sapiens, UniProt O60885); assay: TR-FRET bromodomain binding assay, second bromodomain of BRD4; conditions: TR-FRET assay protocol G (compound 0.92 μM-15 pM); 30 nM probe
T2 construct: protocol; made in house
Outline: as §1

| pKi [1] | pEC50 [2] | pKi [3] | SMILES |
| --- | --- | --- | --- |
| 8.26 | 7.79 | 8.57 | CCC(=O)N1Cc2c[nH]c3c(=O)n(C)cc(c23)-c2cc(CS(C)(=O)=O)ccc21 [Example 105, 10-methyl-7-((methylsulfonyl)methyl)-4-propionyl-3,4-dihydro-1H-1,4,10-triazadibenzo[cd,f]azulen-11(10H)-one] |
| 8.23 | 7.72 | 8.72 | CC(C)CC(=O)N1Cc2c[nH]c3c(=O)n(C)cc(c23)-c2cc(CS(C)(=O)=O)ccc21 [Example 106, 10-methyl-4-(3-methylbutanoyl)-7-((methylsulfonyl)methyl)-3,4-dihydro-1H-1,4,10-triazadibenzo[cd,f]azulen-11(10H)-one] |
| 8.19 | 8.15 | 8.42 | Cn1cc2c3c(c[nH]c3c1=O)CN(C(=O)CC(C)(C)C)c1ccc(CS(C)(=O)=O)cc1-2 [Example 107, 4-(3,3-dimethylbutanoyl)-10-methyl-7-((methylsulfonyl)methyl)-3,4-dihydro-1H-1,4,10-triazadibenzo[cd,f]azulen-11(10H)-one] |
| 7.86 | 6.78 | 8.68 | Cn1cc2c3c(c[nH]c3c1=O)CN(C(=O)Cc1ccccc1)c1ccc(CS(C)(=O)=O)cc1-2 [Example 108, 10-methyl-7-((methylsulfonyl)methyl)-4-(2-phenylacetyl)-3,4-dihydro-1H-1,4,10-triazadibenzo[cd,f]azulen-11(10H)-one] |
| 8.11 | 7.08 | 8.48 | COC(=O)CCC(=O)N1Cc2c[nH]c3c(=O)n(C)cc(c23)-c2cc(CS(C)(=O)=O)ccc21 [Example 111, methyl 4-(10-methyl-7-((methylsulfonyl)methyl)-11-oxo-10,11-dihydro-1H-1,4,10-triazadibenzo[cd,f]azulen-4(3H)-yl)-4-oxobutanoate] |
| 8.06 | 8.11 | 8.57 | Cn1cc2c3c(c[nH]c3c1=O)CN(C(=O)C1CC1)c1ccc(CS(C)(=O)=O)cc1-2 [Example 115, 4-(cyclopropanecarbonyl)-10-methyl-7-((methylsulfonyl)methyl)-3,4-dihydro-1H-1,4,10-triazadibenzo[cd,f]azulen-11(10H)-one] |
| 7.14 | < 6.00 | 8.90 | Cn1cc2c3c(c[nH]c3c1=O)C(CN1C(=O)c3ccccc3C1=O)N(c1ccc(F)cc1F)c1ccc(CS(C)(=O)=O)cc1-2 (stereo not drawn) [Example 117, 2-((4-(2,4-difluorophenyl)-10-methyl-7-((methylsulfonyl)methyl)-11-oxo-3,4,10,11-tetrahydro-1H-1,4,10-triazadibenzo[cd,f]azulen-3-yl)methyl)isoindoline-1,3-dione] |
| 7.90 | 6.76 | 8.86 | CNC(=O)CCC1c2c[nH]c3c(=O)n(C)cc(c23)-c2cc(CS(C)(=O)=O)ccc2N1c1ccc(F)cc1F (stereo not drawn) [Example 118, 3-(4-(2,4-difluorophenyl)-10-methyl-7-((methylsulfonyl)methyl)-11-oxo-3,4,10,11-tetrahydro-1H-1,4,10-triazadibenzo[cd,f]azulen-3-yl)-N-methylpropanamide] |
| 7.92 | 6.87 | 9.22 | CN(C)C(=O)CCC1c2c[nH]c3c(=O)n(C)cc(c23)-c2cc(CS(C)(=O)=O)ccc2N1c1ccc(F)cc1F (stereo not drawn) [Example 119, 3-(4-(2,4-difluorophenyl)-10-methyl-7-((methylsulfonyl)methyl)-11-oxo-3,4,10,11-tetrahydro-1H-1,4,10-triazadibenzo[cd,f]azulen-3-yl)-N,N-dimethylpropanamide] |
| 8.03 | < 6.00 | 8.80 | Cn1cc2c3c(c[nH]c3c1=O)C(CCC(=O)N1CCOCC1)N(c1ccc(F)cc1F)c1ccc(CS(C)(=O)=O)cc1-2 (stereo not drawn) [Example 120, 4-(2,4-difluorophenyl)-10-methyl-7-((methylsulfonyl)methyl)-3-(3-morpholino-3-oxopropyl)-3,4-dihydro-1H-1,4,10-triazadibenzo[cd,f]azulen-11(10H)-one] |
| 8.18 | < 6.00 | 9.10 | Cn1cc2c3c(c[nH]c3c1=O)C(CCC(=O)NC1CCOCC1)N(c1ccc(F)cc1F)c1ccc(CS(C)(=O)=O)cc1-2 (stereo not drawn) [Example 121, 3-(4-(2,4-difluorophenyl)-10-methyl-7-((methylsulfonyl)methyl)-11-oxo-3,4,10,11-tetrahydro-1H-1,4,10-triazadibenzo[cd,f]azulen-3-yl)-N-(tetrahydro-2H-pyran-4-yl)propanamide] |
| 7.97 | < 6.00 | 9.04 | CN(NC(=O)CCC1c2c[nH]c3c(=O)n(C)cc(c23)-c2cc(CS(C)(=O)=O)ccc2N1c1ccc(F)cc1F)c1ccccc1 (stereo not drawn) [Example 122, 3-(4-(2,4-difluorophenyl)-10-methyl-7-((methylsulfonyl)methyl)-11-oxo-3,4,10,11-tetrahydro-1H-1,4,10-triazadibenzo[cd,f]azulen-3-yl)-N′-methyl-N′-phenylpropanehydrazide] |
| 8.00 | < 6.00 | 9.01 | Cn1cc2c3c(c[nH]c3c1=O)C(CCC(=O)NCc1ccccc1)N(c1ccc(F)cc1F)c1ccc(CS(C)(=O)=O)cc1-2 (stereo not drawn) [Example 123, N-benzyl-3-(4-(2,4-difluorophenyl)-10-methyl-7-((methylsulfonyl)methyl)-11-oxo-3,4,10,11-tetrahydro-1H-1,4,10-triazadibenzo[cd,f]azulen-3-yl)propanamide] |
| 8.05 | 6.03 | 8.56 | Cn1cc2c3c(c[nH]c3c1=O)C(CCC(=O)NC1CCS(=O)(=O)C1)N(c1ccc(F)cc1F)c1ccc(CS(C)(=O)=O)cc1-2 (stereo not drawn) [Example 124, 3-(4-(2,4-difluorophenyl)-10-methyl-7-((methylsulfonyl)methyl)-11-oxo-3,4,10,11-tetrahydro-1H-1,4,10-triazadibenzo[cd,f]azulen-3-yl)-N-(1,1-dioxidotetrahydrothiophen-3-yl)propanamide] |
| 8.03 | 6.47 | 8.63 | Cn1cc2c3c(c[nH]c3c1=O)C(CCC(=O)N1CCN(C(=O)OC(C)(C)C)CC1)N(c1ccc(F)cc1F)c1ccc(CS(C)(=O)=O)cc1-2 (stereo not drawn) [Example 125, tert-butyl 4-(3-(4-(2,4-difluorophenyl)-10-methyl-7-((methylsulfonyl)methyl)-11-oxo-3,4,10,11-tetrahydro-1H-1,4,10-triazadibenzo[cd,f]azulen-3-yl)propanoyl)piperazine-1-carboxylate] |
| 8.57 | 7.38 | 8.87 | CCNC(=O)c1[nH]c2c(=O)n(C)cc3c2c1CN(c1ccc(Cl)cc1)c1ccccc1-3 [Example 127, 4-(4-chlorophenyl)-N-ethyl-10-methyl-11-oxo-3,4,10,11-tetrahydro-1H-1,4,10-triazadibenzo[cd,f]azulene-2-carboxamide] |
| 7.54 | 7.14 | 8.70 | CC(=O)OCCCCCCC1c2c[nH]c3c(=O)n(C)cc(c23)-c2cc(CS(C)(=O)=O)ccc2N1c1ccc(F)cc1F (stereo not drawn) [Example 128, 6-(4-(2,4-difluorophenyl)-10-methyl-7-((methylsulfonyl)methyl)-11-oxo-3,4,10,11-tetrahydro-1H-1,4,10-triazadibenzo[cd,f]azulen-3-yl)hexyl acetate] |
| 7.79 | 6.60 | 8.60 | Cn1cc2c3c(c[nH]c3c1=O)C(CN)N(c1ccc(F)cc1F)c1ccc(CS(C)(=O)=O)cc1-2 (stereo not drawn) [Example 129, 3-(aminomethyl)-4-(2,4-difluorophenyl)-10-methyl-7-((methylsulfonyl)methyl)-3,4-dihydro-1H-1,4,10-triazadibenzo[cd,f]azulen-11(10H)-one] |
| 7.97 | < 6.00 | 8.63 | Cn1cc2c3c(c[nH]c3c1=O)C(CCC(=O)N1CCNCC1)N(c1ccc(F)cc1F)c1ccc(CS(C)(=O)=O)cc1-2 (stereo not drawn) [Example 131, 4-(2,4-difluorophenyl)-10-methyl-7-((methylsulfonyl)methyl)-3-(3-oxo-3-(piperazin-1-yl)propyl)-3,4-dihydro-1H-1,4,10-triazadibenzo[cd,f]azulen-11(10H)-one] |
| 7.95 | < 6.00 | 8.50 | Cn1cc2c3c(c[nH]c3c1=O)C(CCC(=O)NC1CCNCC1)N(c1ccc(F)cc1F)c1ccc(CS(C)(=O)=O)cc1-2 (stereo not drawn) [Example 132, 3-(4-(2,4-difluorophenyl)-10-methyl-7-((methylsulfonyl)methyl)-11-oxo-3,4,10,11-tetrahydro-1H-1,4,10-triazadibenzo[cd,f]azulen-3-yl)-N-(piperidin-4-yl)propanamide] |
| 8.03 | 6.69 | 8.85 | CC(=O)OCC(CCC1c2c[nH]c3c(=O)n(C)cc(c23)-c2cc(CS(C)(=O)=O)ccc2N1c1ccc(F)cc1F)OC(C)=O (stereo not drawn) [Example 133, 4-(4-(2,4-difluorophenyl)-10-methyl-7-((methylsulfonyl)methyl)-11-oxo-3,4,10,11-tetrahydro-1H-1,4,10-triazadibenzo[cd,f]azulen-3-yl)butane-1,2-diyl diacetate] |
| 7.84 | 6.74 | 8.95 | COC(=O)CCCCC1c2c[nH]c3c(=O)n(C)cc(c23)-c2cc(CS(C)(=O)=O)ccc2N1c1ccc(F)cc1F (stereo not drawn) [Example 134, methyl 5-(4-(2,4-difluorophenyl)-10-methyl-7-((methylsulfonyl)methyl)-11-oxo-3,4,10,11-tetrahydro-1H-1,4,10-triazadibenzo[cd,f]azulen-3-yl)pentanoate] |
